Some test systems named below: HCT-116 colon; SR leukemia; ACHN renal; M14 melanoma; K-562 leukemia; SK-MEL-5 melanoma; SW-620 colon; IGROV1 ovarian; HS 578T breast; EKVX NSCLC.
Common to all, as to assay: NCI tumour cell line growth inhibition, 48 h

Where “and” joins values, the source holds several entries; their conditions need not be identical. Equal entries are not always repeated.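 Each compound was tested at five concentrations against cells in 96-well plates for 48 hours. GI50: concentration for 50% inhibition of growth. TGI: total growth inhibition.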

Take `COc1cc(OC2OC(COC(=O)c3cc(O)c(O)c(O)c3)C(O)C(O)C2O)ccc1O` (configuration not stated): the TGI in the assay with HCT-116 colon, in the assay with SR leukemia, in the assay on ACHN renal, in the assay on M14 melanoma, in the assay on K-562 leukemia and with SK-MEL-5 melanoma was over 100 µM throughout. The TGI with SW-620 colon, in the assay on IGROV1 ovarian, in the assay on HS 578T breast and in the assay on EKVX NSCLC was over 100 µM each time.

`CNC(=S)NNc1ncnc2c1ncn2-c1ccc(C)cc1`: the TGI with HCT-116 colon, with SR leukemia, in the assay with M14 melanoma, in the assay on K-562 leukemia, with SK-MEL-5 melanoma and in the assay on SW-620 colon was over 100 µM throughout. Besides, the TGI with IGROV1 ovarian, in the assay with HS 578T breast and in the assay on EKVX NSCLC was over 100 µM in each case.

Turning to `COc1ccc([C@]23CCN4COC[C@@H]([C@H]42)C2(CC3)OCC(C)(C)CO2)cc1OC`, the TGI in the assay with HCT-116 colon, with SR leukemia, in the assay on ACHN renal, in the assay with M14 melanoma, with K-562 leukemia and in the assay with SK-MEL-5 melanoma was over 100 µM each time. Moreover, the TGI in the assay with SW-620 colon, with IGROV1 ovarian, in the assay on HS 578T breast and in the assay with EKVX NSCLC was over 100 µM in each case.

For `CC(=O)NC1(C(=O)N[C@@H](Cc2ccccc2)C(=O)NC2CCCCC2)Cc2ccc3ccccc3c2-c2c(ccc3ccccc23)C1`, the TGI with HCT-116 colon was over 100 µM; in the assay with SR leukemia it was over 100 µM; with ACHN renal it was over 100 µM; in the assay with M14 melanoma, 29.6 µM and 44 µM; in the assay with K-562 leukemia, over 100 µM; with SK-MEL-5 melanoma, 12.1 µM and 23.7 µM. Moreover, the TGI in the assay with SW-620 colon, with IGROV1 ovarian, in the assay on HS 578T breast and in the assay on EKVX NSCLC was over 100 µM each time. Besides, the GI50 in the assay with M14 melanoma was 3.32 µM and 7.79 µM; with K-562 leukemia it was 2.7 µM and 7.67 µM; in the assay on SK-MEL-5 melanoma it was 2.9 µM and 6.71 µM; with IGROV1 ovarian, 16.2 µM and 39.8 µM; in the assay on EKVX NSCLC it was 4.45 µM and 18.4 µM.

On to `Cc1ccc(S(=O)(=O)n2ccc(-c3ccc4ccn(S(=O)(=O)c5ccc(C)cc5)c4c3)c2)cc1`, for which the TGI in the assay on HCT-116 colon, in the assay with SR leukemia, in the assay with ACHN renal, in the assay with M14 melanoma, in the assay with K-562 leukemia and in the assay with SK-MEL-5 melanoma was over 100 µM each time. In addition, the TGI in the assay with SW-620 colon, in the assay on IGROV1 ovarian, with HS 578T breast and with EKVX NSCLC was over 100 µM each time.

As to `O=[N+]([O-])c1ccc(O)c(/C=N/c2nc(-c3ccccc3)cs2)c1`, the TGI is 80.9 µM in the assay on HCT-116 colon; 21.7 µM in the assay with SR leukemia; over 100 µM in the assay on ACHN renal; over 92.1 µM with M14 melanoma; 41.9 µM with K-562 leukemia; 34.4 µM with SK-MEL-5 melanoma. For the same compound, the TGI with SW-620 colon was over 100 µM; in the assay on IGROV1 ovarian, 74.3 µM; in the assay with HS 578T breast it was 74.6 µM; in the assay with EKVX NSCLC, over 100 µM.

With `COc1ccc(C2SCC(=O)N2NC(=O)C(C)Oc2ccccc2C)cc1` (configuration not stated), the TGI with HCT-116 colon, in the assay with SR leukemia, in the assay on ACHN renal, with M14 melanoma, with K-562 leukemia and with SK-MEL-5 melanoma was over 100 µM throughout. For the same compound, the TGI in the assay on SW-620 colon, in the assay on IGROV1 ovarian, with HS 578T breast and in the assay with EKVX NSCLC was over 100 µM each time.

In the case of `Cc1ccc2c(C(=O)c3c(C)n(CCN4CCOCC4)c4ccccc34)cccc2c1`, the TGI in the assay on HCT-116 colon was 40.9 µM; in the assay on SR leukemia it was over 100 µM; in the assay on ACHN renal, 88.4 µM; with M14 melanoma, 62 µM; in the assay on K-562 leukemia, over 100 µM; with SK-MEL-5 melanoma, 13 µM. In addition, the TGI with SW-620 colon is 16.5 µM; with IGROV1 ovarian, over 100 µM; with HS 578T breast, 25.6 µM; with EKVX NSCLC, 63.3 µM.

As to `O=C1C2=C(SCCS2)C(=O)c2c(Sc3ccc(Cl)cc3)c(Sc3ccc(Cl)cc3)c(Sc3ccc(Cl)cc3)c(Sc3ccc(Cl)cc3)c21`, the TGI in the assay with HCT-116 colon was over 100 µM; with SR leukemia, 36.2 µM; with ACHN renal it was over 100 µM; in the assay with M14 melanoma, over 100 µM; in the assay on SK-MEL-5 melanoma, over 100 µM; in the assay on SW-620 colon it was over 100 µM. Besides, the TGI in the assay on IGROV1 ovarian, in the assay on HS 578T breast and in the assay with EKVX NSCLC was over 100 µM in each case.

With `COc1cccc(C2SC(C)C(=O)N2CCc2cccs2)c1` (configuration not stated), the GI50 was 1.89 µM in the assay on HCT-116 colon; 2.5 µM with SR leukemia; 3.34 µM in the assay with ACHN renal; 2.81 µM in the assay with K-562 leukemia; 1.58 µM with SK-MEL-5 melanoma; 3.48 µM in the assay on SW-620 colon. Also, the values for the GI50 in the assay with IGROV1 ovarian, with HS 578T breast and in the assay with EKVX NSCLC were 2.01 µM, 2.56 µM and 1.49 µM, respectively. In addition, the TGI in the assay with HCT-116 colon is 8.36 µM; with SR leukemia, 15.5 µM; in the assay on ACHN renal, 13.8 µM; with K-562 leukemia it was over 100 µM; in the assay with SK-MEL-5 melanoma it was 2.96 µM; in the assay on SW-620 colon, 15.7 µM. Besides, the TGI worked out at 15.7 µM with IGROV1 ovarian, 26.8 µM in the assay with HS 578T breast and 10.7 µM with EKVX NSCLC.

As for `CCOC(=O)c1[nH]c2cccc3c2c1CC[C@H](NC(=O)C(F)(F)F)C3=O`, the TGI with HCT-116 colon, with SR leukemia, in the assay with M14 melanoma, with K-562 leukemia, in the assay on SK-MEL-5 melanoma and in the assay on SW-620 colon was over 100 µM in each case. The TGI was over 100 µM in the assay on IGROV1 ovarian, 61.8 µM in the assay on HS 578T breast and 0.0531 µM in the assay with EKVX NSCLC.

`O=C(O)CCc1ccc2c(c1)CC1(Cc3ccccc3C1)C2`: the TGI in the assay with HCT-116 colon, with SR leukemia, in the assay with ACHN renal, with M14 melanoma, in the assay with SK-MEL-5 melanoma and in the assay with IGROV1 ovarian was over 100 µM each time. Further, the TGI in the assay on HS 578T breast and with EKVX NSCLC was over 100 µM throughout.

Regarding `COc1cc2c(cc1OC)[C@@](C)(C(O)C(O)C(C)(C)O)NCC2` (some centres not stated), the TGI with HCT-116 colon, in the assay on SR leukemia, in the assay on ACHN renal, with M14 melanoma, in the assay on K-562 leukemia and in the assay on SK-MEL-5 melanoma was over 100 µM each time. Besides, the TGI in the assay on IGROV1 ovarian, in the assay on HS 578T breast and with EKVX NSCLC was over 100 µM in each case.

(Values after PubChem BioAssay (NCI).)
